# Legend:
# [1] = tested on: KBv200; assay: Cytotoxicity against human KBv200 cells assessed as reduction in cell viability incubated for 72 hrs by SRB assay; assay type: functional, cell-based; details: KBv200, 72 h
# [2] = tested on: K562/Adr; assay: Antiproliferative activity against human K562/Adr cells assessed as reduction in cell growth incubated for 72 hrs by MTT assay; assay type: functional, cell-based
# [3] = tested on: HCT-116; assay: Antiproliferative activity against human HCT-116 cells; assay type: functional, cell-based
# [4] = tested on: LoVo; assay: Antiproliferative activity against human LoVo cells; assay type: functional, cell-based
# [5] = tested on: HeLa; assay: Antiproliferative activity against human HeLa cells assessed as reduction in cell viability incubated for 24 hrs by MTT assay; assay type: functional, cell-based
# [6] = tested on: A549; assay: Antiproliferative activity against human A549 cells assessed as reduction in cell viability incubated for 24 hrs by MTT assay; assay type: functional, cell-based; details: A549, 24 h
# [7] = tested on: HCT-116; assay: Antiproliferative activity against human HCT-116 cells assessed as reduction in cell viability incubated for 24 hrs by MTT assay; assay type: functional, cell-based; details: HCT-116, 24 h
# [8] = tested on: T47D; assay: Antiproliferative activity against human T47D cells; assay type: functional, cell-based
# [9] = tested on: MDA-MB-231; assay: Antiproliferative activity against human MDA-MB-231 cells; assay type: functional, cell-based
# [10] = tested on: MCF7; assay: Antiproliferative activity against human MCF7 cells; assay type: functional, cell-based
# [11] = tested on: MDA-MB-231; assay: Cytotoxicity against human MDA-MB-231 cells assessed as reduction in cell viability incubated for 48 hrs by SRB assay; assay type: functional, cell-based; details: MDA-MB-231, 48 h
# [12] = tested on: MCF7; assay: Cytotoxicity against human MCF7 cells assessed as reduction in cell viability incubated for 48 hrs by SRB assay; assay type: functional, cell-based; details: MCF7, 48 h
# [13] = tested on: HeLa; assay: Cytotoxicity against human HeLa cells assessed as reduction in cell viability incubated for 48 hrs by SRB assay; assay type: functional, cell-based
# [14] = tested on: HepG2; assay: Cytotoxicity against human HepG2 cells assessed as reduction in cell viability incubated for 48 hrs by SRB assay; assay type: functional, cell-based; details: HepG2, 48 h
# [15] = tested on: DU-145; assay: Cytotoxicity against human DU-145 cells assessed as reduction in cell viability incubated for 48 hrs by SRB assay; assay type: functional, cell-based; details: DU-145, 48 h
# [16] = tested on: Bacillus subtilis; assay: Antibacterial activity against Bacillus subtilis assessed as reduction in bacterial growth; assay type: functional, organism-based
# [17] = Cytotoxicity against human BEAS-2B cells assessed as reduction in cell viability by MTT assay; assay type: toxicity, cell-based
# [18] = tested on: MCF7; assay: Cytotoxicity against human MCF7 cells assessed as reduction in cell viability by MTT assay; assay type: functional, cell-based
# [19] = tested on: A549; assay: Cytotoxicity against human A549 cells assessed as reduction in cell viability by MTT assay; assay type: functional, cell-based
# [20] = tested on: HeLa; assay: Antiproliferative activity against human HeLa cells assessed as reduction in cell viability incubated for 48 hrs by MTT assay; assay type: functional, cell-based
# [21] = tested on: MCF7; assay: Growth inhibition of human MCF7 cells measured for 48 hrs by SRB assay; assay type: functional
# [22] = Antioxidant activity assessed as DPPH radical scavenging activity; assay type: functional
# [23] = tested on: A549; assay: Growth inhibition of human A549 cells measured for 48 hrs by SRB assay; assay type: functional
# [24] = tested on: PC-3; assay: Growth inhibition of human PC-3 cells measured for 48 hrs by SRB assay; assay type: functional
# [25] = Antioxidant activity assessed as hydroxyl radical scavenging activity; assay type: functional
# [26] = tested on: HepG2; assay: Growth inhibition of human HepG2 cells measured for 48 hrs by SRB assay; assay type: functional
# [27] = tested on: BXPC-3; assay: Antiproliferative activity against human BXPC-3 cells assessed as reduction in cell growth incubated for 72 hrs by MTT assay; assay type: functional, cell-based
# [28] = molecular target: Cyclin-dependent kinases regulatory subunit 1/S-phase kinase-associated protein 2 (Homo sapiens) (UniProt P61024+Q13309); assay: Inhibition of SKP2/CKS1 (unknown origin) protein-protein interaction at 50 uM relative to control; assay type: protein assay
# Sequence of Cyclin-dependent kinases regulatory subunit 1/S-phase kinase-associated protein 2 (Homo sapiens) (P61024 2-79 limits assumed): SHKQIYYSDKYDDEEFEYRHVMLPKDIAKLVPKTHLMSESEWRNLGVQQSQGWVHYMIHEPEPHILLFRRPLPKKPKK
# Sequence of Cyclin-dependent kinases regulatory subunit 1/S-phase kinase-associated protein 2 (Homo sapiens) (Q13309 whole entry partner): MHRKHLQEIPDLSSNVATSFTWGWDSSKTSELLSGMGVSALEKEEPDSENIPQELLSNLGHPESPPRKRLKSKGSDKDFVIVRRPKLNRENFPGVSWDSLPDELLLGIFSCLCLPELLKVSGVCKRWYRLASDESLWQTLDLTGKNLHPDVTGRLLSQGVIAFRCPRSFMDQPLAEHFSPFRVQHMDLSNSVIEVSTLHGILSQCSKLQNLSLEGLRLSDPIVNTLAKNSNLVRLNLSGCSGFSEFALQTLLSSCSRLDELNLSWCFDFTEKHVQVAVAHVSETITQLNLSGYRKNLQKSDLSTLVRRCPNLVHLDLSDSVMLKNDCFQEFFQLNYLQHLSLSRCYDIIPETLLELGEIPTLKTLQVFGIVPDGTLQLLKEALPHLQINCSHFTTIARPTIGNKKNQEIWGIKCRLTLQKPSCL
# [29] = tested on: Escherichia coli; assay: Antimicrobial activity against Escherichia coli assessed as reduction in microbial growth; assay type: functional, organism-based
compound,measurement,setting,value
CCC1=C[C@@H]2CN(C1)Cc1c([nH]c3ccccc13)[C@@](C(=O)OC)(c1cc3c(cc1OC)N(C)[C@H]1[C@@](O)(C(=O)OC)[C@H](OC(C)=O)[C@]4(CC)C=CCN5CC[C@]31[C@@H]54)C2 [VINORELBINE],IC50,[1],0.434 µM
same,IC50,[2],0.558 µM
O=C(CCCCCCC(=O)Nc1ccccc1)NO [VORINOSTAT],IC50,[3],10.1 µM
same,IC50,[4],0.74 µM
COc1ccc(C2c3ccccc3-c3nc(C)cc(C(F)(F)F)c32)cc1 (stereo not given),IC50,[5],6.65 µM
same,IC50,[6],12.3 µM
same,IC50,[7],14.9 µM
C=C1N(S(=O)(=O)c2ccc(C)cc2)c2ccccc2[C@@]1(C)N,IC50,[8],17.7 µM
same,IC50,[3],> 25 µM
same,IC50,[9],6.66 µM
same,IC50,[4],> 25 µM
same,IC50,[10],16.1 µM
CCOC(=O)c1sc(-c2ccc(OCC(C)C)c(C(Nc3ccc(C(F)(F)F)cc3I)P(=O)(OCC)OCC)c2)nc1C (stereo not given),IC50,[11],8.54 µg/mL
same,IC50,[12],14.1 µg/mL
same,IC50,[13],12.3 µg/mL
same,IC50,[14],26.1 µg/mL
same,IC50,[15],3.34 µg/mL
CN[C@@H]1[C@@H](O)[C@@H](O[C@@H]2[C@@H](O)[C@H](O[C@H]3O[C@H](CN)CC[C@H]3N)[C@@H](N)C[C@H]2N)OC[C@]1(C)O [GENTAMICIN C1A],IC50,[16],0.115 µM
COC(=O)c1nc2nc(Oc3ccccc3)c(C#N)c(-c3ccc([N+](=O)[O-])cc3)c2c(N)c1C(=O)OC,IC50,[17],51.3 µg/mL
same,IC50,[18],7.57 µg/mL
same,IC50,[19],8.24 µg/mL
Cc1nn(-c2ccccc2Cl)c(O)c1-c1ccccc1C1=Nc2ccccc2C1(C)C,IC50,[20],26.7 µM
CCc1cc(C(=O)c2ccccc2Cl)c(NC(c2ccc(F)cc2)c2c(O)ccc3ccccc23)s1 (stereo not given),GI50,[21],< 10 µg/mL
same,IC50,[22],29.8 µM
same,GI50,[23],< 10 µg/mL
same,GI50,[24],< 10 µg/mL
same,IC50,[25],31.3 µM
same,GI50,[26],< 10 µg/mL
Cc1nn(-c2ccc(C(C)C)cc2)c(O)c1-c1ccccc1C1=Nc2ccccc2C1(C)C,IC50,[20],23.8 µM
CCOC(=O)c1sc(-c2ccc(OCC(C)C)c(C(Nc3ccc(OC)cc3)P(=O)(OCC)OCC)c2)nc1C (stereo not given),IC50,[11],8.18 µg/mL
same,IC50,[12],12.5 µg/mL
same,IC50,[13],10.7 µg/mL
same,IC50,[14],22 µg/mL
same,IC50,[15],3.02 µg/mL
CCc1cc(C(=O)c2ccccc2Cl)c(NC(c2cc(OC)c(OC)c(OC)c2)c2c(O)ccc3ccccc23)s1 (stereo not given),GI50,[21],< 10 µg/mL
same,IC50,[22],33.5 µM
same,GI50,[23],< 10 µg/mL
same,GI50,[24],< 10 µg/mL
same,IC50,[25],32.8 µM
same,GI50,[26],< 10 µg/mL
Cc1ccc([C@H]2NC(=O)n3c(cc4ccccc43)C23CC3)cc1 (stereo in doubt; 16a),IC50,[27]; bxpc-3,8.6 µM
Cc1ccc(C2NC(=O)n3c(cc4ccccc43)C23CC3)cc1 (racemic),IC50,"[27]; Homo sapiens, BXPC-3, 72 h",3.1 µM
O=NN(CCCl)C(=O)NCCCl [CARMUSTINE],IC50,[17],6.52 µg/mL
same,IC50,[18],9.34 µg/mL
same,IC50,[19],6.35 µg/mL
Nc1ccn([C@@H]2O[C@H](CO)[C@@H](O)C2(F)F)c(=O)n1 [GEMCITABINE],IC50,"[27]; Homo sapiens, BXPC-3, 72 h",2.3 µM
Cc1ccc([C@@H]2NC(=O)n3c(cc4ccccc43)C23CC3)cc1,IC50,"[27]; Homo sapiens, BXPC-3, 72 h",1.7 µM
COc1cc(OC)c(-c2cc(CC3c4ccccc4C(=O)N3c3ccc(Br)cc3)nc3ncnn23)c(OC)c1 (stereo not given),inhibition,[28],57%
O=C1O[C@H]([C@@H](O)CO)C(O)=C1O [ASCORBIC ACID],GI50,[21],< 10 µg/mL
same,IC50,[22],27.3 µM
same,GI50,[23],< 10 µg/mL
same,GI50,[24],< 10 µg/mL
same,IC50,[25],25.1 µM
same,GI50,[26],< 10 µg/mL
C[C@H]1c2cccc(O)c2C(=O)C2=C(O)[C@]3(O)C(=O)C(C(N)=O)=C(O)[C@@H](N(C)C)[C@@H]3[C@@H](O)[C@@H]21 [DOXYCYCLINE ANHYDROUS],IC50,[29],0.1 µM
same,IC50,[16],0.126 µM
COC(=O)c1nc2nc(Oc3ccccc3)c(C#N)c(-c3cccc([N+](=O)[O-])c3)c2c(N)c1C(=O)OC,IC50,[17],4.09 µg/mL
same,IC50,[18],1.48 µg/mL
same,IC50,[19],6.12 µg/mL
CCc1cc(C(=O)c2ccccc2Cl)c(NC(c2cccs2)c2c(O)ccc3ccccc23)s1 (stereo not given),GI50,[21],< 10 µg/mL
same,IC50,[22],32.1 µM
same,GI50,[23],< 10 µg/mL
same,GI50,[24],< 10 µg/mL
same,IC50,[25],34.8 µM
same,GI50,[26],< 10 µg/mL
C=C1N(S(=O)(=O)c2ccc(C)cc2)c2ccccc2[C@]1(C)N,IC50,[8],2.88 µM
same,IC50,[3],4.3 µM
same,IC50,[9],2.15 µM
same,IC50,[4],3.65 µM
same,IC50,[10],2.21 µM

# Source: ChEMBL document CHEMBL6134800, “Applications of innovative synthetic strategies in anticancer drug discovery: The driving force of new chemical reactions” (Bioorg Med Chem Lett, 2025)
